Counter-ions that a name gives are not always drawn.
What follows are molecules tested against T1, human C1s protein (Homo sapiens, UniProt P09871) (assay: recombinant C1s enzymatic assay (YLGR-Rh110-dPro substrate hydrolysis, fluorescence)). Details: recombinant human C1s 2.5 nM, substrate YLGR-Rh110-dPro 20 μM, 15 min pre-incubation, 60 min RT; read-out: rec. hC11s pIC50 (converted).
T1 construct: purchased R&D Systems or Complement Technologies 2060-SE or A104
T1 sequence (P09871 16-688): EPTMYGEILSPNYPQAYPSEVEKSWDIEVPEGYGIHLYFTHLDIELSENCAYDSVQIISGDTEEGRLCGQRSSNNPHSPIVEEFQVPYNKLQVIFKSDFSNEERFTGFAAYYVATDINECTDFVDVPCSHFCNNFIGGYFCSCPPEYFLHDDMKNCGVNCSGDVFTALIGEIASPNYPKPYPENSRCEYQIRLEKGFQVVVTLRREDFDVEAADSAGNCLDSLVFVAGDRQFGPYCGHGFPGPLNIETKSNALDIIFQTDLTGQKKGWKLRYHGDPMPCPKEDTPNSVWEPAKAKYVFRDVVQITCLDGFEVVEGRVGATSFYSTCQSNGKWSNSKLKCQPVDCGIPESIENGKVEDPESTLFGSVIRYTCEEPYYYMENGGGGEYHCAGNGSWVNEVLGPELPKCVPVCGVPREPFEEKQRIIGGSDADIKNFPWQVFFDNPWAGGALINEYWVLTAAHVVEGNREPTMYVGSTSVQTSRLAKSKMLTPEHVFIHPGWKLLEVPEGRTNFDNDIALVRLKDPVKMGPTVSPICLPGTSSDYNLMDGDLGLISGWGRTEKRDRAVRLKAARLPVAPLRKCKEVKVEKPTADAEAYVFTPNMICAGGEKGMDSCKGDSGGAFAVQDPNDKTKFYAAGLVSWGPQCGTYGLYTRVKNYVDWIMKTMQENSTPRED
Type: biochemical
Protocol: Compound testing in the purified or recombinant C1s enzymatic assay C1s is a serine protease; its enzymatic activity is measured in vitro by the hydrolysis of the synthetic substrate YLGR-Rh110-dPro (Kerr F K, O'Brien G, Quinsey N S, Whisstock J C, Boyd S, de la Banda M G, Kaiserman D, Matthews A Y, Bird P I, Pike R N. Elucidation of the substrate specificity of the Cis protease of the classical complement pathway. J. Biol. Chem. (2005) 280, 39510-39514). The enzyme cleaves the substrate with the release of Rh110 which is highly fluorescent. Cis inhibitors prevent the hydrolysis of the substrate thus resulting in a decrease of the signal.
The recombinant C1s enzymatic assay is performed using the human C1s protein (R&D Systems, 2060-SE or Complement Technologies, A104). The assay buffer composition is: 50 mM HEPES pH 7.5 (Sigma, H3375), 150 mM NaCl (Sigma, S7653), 0.2% PEG 8000 (VWR, AA43443-22), 0.01% Pluronic F127 (Sigma, P2243). On the day of the experiment 0.1 mg/mL BSA (Sigma, B4287) is added fresh to the buffer. The test item stock solutions are serially diluted 1:3 or 1:4 or 1:5 with DMSO, 11-point curves, in a 384-well compound plate. Nafamostat concentration curve is always included in the assay plate as a reference control.
The assay plate is prepared by dispensing 0.25 μL from compound plate into a 384-well black assay plate (assay plate, Greiner Fluotrac 200, 781076, VWR 736-0140). The high controls are prepared dispensing in 0.25 μL DMSO in column 23, rows AH or AP and low controls with 0.25 μL of 0.1 μM Nafamostat. Cis solution is prepared as 2× of the 2.5 nM final assay concentration. The YLGR-Rh110-dPro substrate is prepared as 2× of the final assay concentration of 20 μM. 5 μL/well of 2× enzyme solution is dispensed and pre-incubated for 15 min with the compounds. The enzymatic reaction is the started with 5 μL/well of the 2× substrate solution. The plate is incubated for 60 min RT in the dark and fluorescence is measured (ex 485/em 535 nm) using an Envision (PerkinElmer) or an equivalent instrument.

Going from `CC1COc2cc(-n3cccn3)c(-c3ccc4c(N)cnnc4c3)cc2B(O)O1` (single isomer, unassigned; enantiomer 1) [Example 72, 7-(1-hydroxy-3-methyl-7-pyrazol-1-yl-3,4-dihydro-2,5,1-benzodioxaborepin-8-yl)cinnolin-4-amine enantiomer 1] to `Cc1cc(-n2cccn2)c(-c2ccc3c(N)cnnc3c2)cc1B(O)O` [Example 8, [5-(4-aminocinnolin-7-yl)-2-methyl-4-(1H-pyrazol-1-yl)phenyl]boronic acid], the IC50 rises from 1.7 nM to 14.8 nM (8.7-fold).

`CC1COc2cc(-n3cccn3)c(-c3ccc4c(N)cnnc4c3)cc2B(O)O1` (single isomer, unassigned; enantiomer 2) [Example 73, 7-(1-hydroxy-3-methyl-7-pyrazol-1-yl-3,4-dihydro-2,5,1-benzodioxaborepin-8-yl)cinnolin-4-amine enantiomer 2] and `COc1cc(-n2cccn2)c(-c2ccc3c(N)cnnc3c2)cc1B(O)O` [Example 23, [5-(4-aminocinnolin-7-yl)-2-methoxy-4-(1H-pyrazol-1-yl)phenyl]boronic acid] are within 1.5-fold of each other in IC50: 1.51 nM for the first, 1.07 nM for the second.

`Nc1cnnc2cc(-c3cc(B(O)O)ccc3-n3cccn3)ccc12` [Example 1, [3-(4-aminocinnolin-7-yl)-4-(1H-pyrazol-1-yl)phenyl]boronic acid] and `Nc1cnnc2cc(-c3cc(B(O)O)ccc3-n3ccnn3)ccc12` [Example 16, [3-(4-aminocinnolin-7-yl)-4-(1H-1,2,3-triazol-1-yl)phenyl]boronic acid] are within 1.5-fold of each other in IC50: 3.24 nM for the first, 3.98 nM for the second.

First: CNC(=O)c1cnn(-c2ccc(B(O)O)cc2-c2ccc3c(N)cnnc3c2)c1 [Example 2, [3-(4-aminocinnolin-7-yl)-4-[4-(methylcarbamoyl)-1H-pyrazol-1-yl]phenyl]boronic acid formic acid salt]
Second: CC(=O)Nc1cnn(-c2ccc(B(O)O)cc2-c2ccc3c(N)cnnc3c2)c1 [Example 10, [3-(4-aminocinnolin-7-yl)-4-(4-acetamido-1H-pyrazol-1-yl)phenyl]boronic acid formic acid salt]
The IC50 of the first is 2.2-fold higher: 3.89 nM for the first, 1.78 nM for the second.

Compared with `Nc1cnnc2cc(-c3cc(B(O)O)ccc3-n3ccnc3)ccc12` [Example 3, [3-(4-aminocinnolin-7-yl)-4-(1H-imidazol-1-yl)phenyl]boronic acid], `Nc1cnnc2cc(-c3cc(B(O)O)ccc3-n3cncn3)ccc12` [Example 5, [3-(4-aminocinnolin-7-yl)-4-(1H-1,2,4-triazol-1-yl)phenyl]boronic acid formic acid salt] is 50-fold lower in IC50: 66.1 nM for the first, 1.32 nM for the second.

`COC(=O)c1cn(-c2ccc(B(O)O)cc2-c2ccc3c(N)cnnc3c2)cn1` [Example 4, [3-(4-aminocinnolin-7-yl)-4-[4-(methoxycarbonyl)-1H-imidazol-1-yl]phenyl]boronic acid] and `CNC(=O)c1ccn(-c2ccc(B(O)O)cc2-c2ccc3c(N)cnnc3c2)n1` [Example 6, [3-(4-aminocinnolin-7-yl)-4-[3-(methylcarbamoyl)-1H-pyrazol-1-yl]phenyl]boronic acid] are within 1.5-fold of each other in IC50: 38.9 nM for the first, 29.5 nM for the second.

Compared with `Nc1cnnc2cc(-c3cc(B(O)O)ccc3-c3cc[nH]n3)ccc12` [Example 7, [3-(4-aminocinnolin-7-yl)-4-(1H-pyrazol-3-yl)phenyl]boronic acid], `Nc1cnnc2cc(-c3cc(B(O)O)ccc3-c3nc[nH]n3)ccc12` [Example 20, [3-(4-aminocinnolin-7-yl)-4-(1H-1,2,4-triazol-3-yl)phenyl]boronic acid] is 3.4-fold lower in IC50: 2.63 nM for the first, 0.776 nM for the second.

`Nc1cnnc2cc(-c3cc(B(O)O)ccc3-n3cc(C(F)F)cn3)ccc12` [Example 9, [3-(4-aminocinnolin-7-yl)-4-[4-(difluoromethyl)-1H-pyrazol-1-yl]phenyl]boronic acid] and `Nc1cnnc2cc(-c3cc(B(O)O)ccc3-n3cc(F)cn3)ccc12` [Example 11, [3-(4-aminocinnolin-7-yl)-4-(4-fluoro-1H-pyrazol-1-yl)phenyl]boronic acid formic acid salt] are within 1.5-fold of each other in IC50: 1.74 nM for the first, 1.45 nM for the second.

Compared with `Nc1cnnc2cc(-c3cc(B(O)O)ccc3-n3ncnn3)ccc12` [Example 12, [3-(4-aminocinnolin-7-yl)-4-(2H-1,2,3,4-tetrazol-2-yl)phenyl]boronic acid], `Nc1cnnc2cc(-c3cc(B(O)O)ccc3-n3nccn3)ccc12` [Example 15, [3-(4-aminocinnolin-7-yl)-4-(2H-1,2,3-triazol-2-yl)phenyl]boronic acid formic acid salt] is 1.6-fold higher in IC50: 0.589 nM for the first, 0.933 nM for the second.

`Nc1cnnc2cc(-c3cc(B(O)O)cnc3-n3cccn3)ccc12` [Example 13, [5-(4-aminocinnolin-7-yl)-6-(1H-pyrazol-1-yl)pyridin-3-yl]boronic acid] and `Nc1cnnc2cc(-c3cc(B(O)O)c(OC(F)F)cc3-n3cccn3)ccc12` [Example 27, [5-(4-aminocinnolin-7-yl)-2-(difluoromethoxy)-4-(1H-pyrazol-1-yl)phenyl]boronic acid formic acid salt] are the same in IC50: 4.47 nM for the first, 4.47 nM for the second.

First: Nc1cnnc2cc(-c3cc(B(O)O)ccc3-n3ccc(C(F)F)n3)ccc12 [Example 14, [3-(4-aminocinnolin-7-yl)-4-[3-(difluoromethyl)-1H-pyrazol-1-yl]phenyl]boronic acid formic acid salt]
Second: N#Cc1ccn(-c2ccc(B(O)O)cc2-c2ccc3c(N)cnnc3c2)n1 [Example 17, [3-(4-aminocinnolin-7-yl)-4-(3-cyano-1H-pyrazol-1-yl)phenyl]boronic acid]
The IC50 of the first is 2.3-fold higher: 14.8 nM for the first, 6.31 nM for the second.

First: Cc1nc(-c2ccc(B(O)O)cc2-c2ccc3c(N)cnnc3c2)ns1 [Example 18, [3-(4-aminocinnolin-7-yl)-4-(5-methyl-1,2,4-thiadiazol-3-yl)phenyl]boronic acid]
Second: Nc1cnnc2cc(-c3cc(B(O)O)ccc3-c3ncccn3)ccc12 [Example 26, [3-(4-aminocinnolin-7-yl)-4-(pyrimidin-2-yl)phenyl]boronic acid formic acid salt]
The IC50 of the first is 4.5-fold lower: 1.62 nM for the first, 7.24 nM for the second.

Compared with `Nc1cnnc2cc(-c3cc(B(O)O)ccc3-c3cc(C(F)(F)F)[nH]n3)ccc12` [Example 19, [3-(4-aminocinnolin-7-yl)-4-[5-(trifluoromethyl)-1H-pyrazol-3-yl]phenyl]boronic acid], `Nc1cnnc2cc(-c3cc(B(O)O)ccc3-c3nccs3)ccc12` [Example 24, [3-(4-aminocinnolin-7-yl)-4-(1,3-thiazol-2-yl)phenyl]boronic acid formic acid salt] is 14-fold lower in IC50: 34.7 nM for the first, 2.57 nM for the second.

`CS(=O)(=O)Nc1cnn(-c2ccc(B(O)O)cc2-c2ccc3c(N)cnnc3c2)c1` [Example 21, [3-(4-aminocinnolin-7-yl)-4-(4-methanesulfonamido-1H-pyrazol-1-yl)phenyl]boronic acid] and `COc1cnn(-c2ccc(B(O)O)cc2-c2ccc3c(N)cnnc3c2)c1` [Example 28, [3-(4-aminocinnolin-7-yl)-4-(4-methoxy-1H-pyrazol-1-yl)phenyl]boronic acid formic acid salt] are within 1.5-fold of each other in IC50: 1.86 nM for the first, 2.19 nM for the second.

`N#Cc1ccnn1-c1ccc(B(O)O)cc1-c1ccc2c(N)cnnc2c1` [Example 22, [3-(4-aminocinnolin-7-yl)-4-(5-cyano-1H-pyrazol-1-yl)phenyl]boronic acid] and `Nc1cnnc2cc(-c3cc(B(O)O)ccc3-c3ncco3)ccc12` [Example 25, [3-(4-aminocinnolin-7-yl)-4-(1,3-oxazol-2-yl)phenyl]boronic acid formic acid salt] are within 1.5-fold of each other in IC50: 0.851 nM for the first, 0.912 nM for the second.
